Assay results: patent US8586505B2 (SDS Biotech K. K., priority 2009, dated 2013)

Key:
[1] = test system: Phytophthora infestans; assay: whole plant or invertebrate; type: in vivo; settings: in Solanum lycopersicum, 96 h, read-out: Determination of control effect (preventive value)
[2] = test system: Pseudoperonospora cubensis; assay: Test of examining control effect on Pseudoperonospora cubensis (potted cucumber plants); type: in vivo; settings: 96 h, 10% wettable powder adjusted to 125 ppm, 15 ml/pot sprayed on potted cucumber plants one day before spray inoculation, assessed after 1 day wet chamber and 3 days greenhouse, read-out: Determination of control effect (preventive value) on Pseudoperonospora cubensis
In short: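 Cucumber plants (Sagamihanjiro, 2.5-leaf stage) sprayed with 125 ppm compound solution from 10% wettable powder, 15 ml/pot. One day later, spray-inoculated with P. cubensis conidia (1.0×10^4 cells/ml), kept 1 day at 21° C wet, then 3 days in greenhouse. Preventive value derived from lesion area relative to untreated plants.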

[3] = test system: Sphaerotheca fuliginea; assay: Test of examining control effect on Sphaerotheca fuliginea (potted cucumber plants); type: in vivo; settings: Podosphaera fuliginea, 336 h; 10% wettable powder adjusted to 125 ppm, 15 ml/pot sprayed on potted cucumber plants one day before spray inoculation; assessed after 14 days in greenhouse; read-out: Determination of control effect (preventive value) on Sphaerotheca fuliginea
In short: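 Cucumber plants (Sagamihanjiro, 2nd leaf stage) sprayed with 125 ppm compound (from 10% wettable powder), inoculated one day later with S. fuliginea conidia (1.0×10^5 cells/ml); lesion area scored after 14 days in greenhouse. Preventive value vs untreated; ≥60% high, <60% low control.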

[4] = test system: Tetranychus urticae eggs; assay: Test of examining effect on Tetranychus urticae eggs (ovicidal rate); type: in vivo; settings: 144 h, 0.4 ml sprayed, unhatched eggs counted six days later, read-out: Determination (ovicidal rate)
Experimental: Thereafter, the released female adults were removed. […] Six days later, the number of unhatched eggs was counted, and an ovicidal rate was calculated.

Molecule `COc1ccc(C#CCCNc2ncnc3sccc23)cc1OC` [compound 24] has a pest or weed control at 125 ppm [1] of 0 to 60%, a pest or weed control at 125 µg/mL [2] of 60 to 100% and a pest or weed control at 125 µg/mL [3] of 60 to 100%. The pest or weed control at 250 ppm [4] was 60 to 80% and the melting point was 182 to 184 °C.

Molecule `CC(F)c1ncnc(NCCC#Cc2ccccc2)c1Cl` (stereo not drawn) [compound 376] has a pest or weed control at 125 ppm [1] of 60 to 100%, a pest or weed control at 125 µg/mL [2] of 60 to 100% and a pest or weed control at 125 µg/mL [3] of 60 to 100%. It also gave a pest or weed control at 250 ppm [4] of at least 95%.

With `CCC(CC#Cc1ccccc1)Nc1ncnc2sccc12` (stereo not drawn) [compound 267] the pest or weed control at 125 ppm [1] was 0 to 60%, the pest or weed control at 125 µg/mL [2] was 60 to 100% and the pest or weed control at 125 µg/mL [3] was 60 to 100%. The pest or weed control at 250 ppm [4] was 60 to 80%.

`Cc1ccc(C#CCCNc2ncnc3sccc23)cc1` [compound 19] gave a pest or weed control at 125 ppm [1] of 0 to 60%, a pest or weed control at 125 µg/mL [2] of 60 to 100% and a pest or weed control at 125 µg/mL [3] of 60 to 100%. For the same molecule, the pest or weed control at 250 ppm [4] was 60 to 80%.

Molecule `CC(CC#Cc1ccc(C(F)(F)F)cc1F)Nc1ncnc2ccccc12` (stereo not drawn) [compound 288] has a pest or weed control at 125 ppm [1] of 0 to 60%, a pest or weed control at 125 µg/mL [2] of 60 to 100% and a pest or weed control at 125 µg/mL [3] of 60 to 100%. The pest or weed control at 250 ppm [4] was at least 95%.

`CC(CC#Cc1ccc(S(F)(F)(F)(F)F)cc1)Nc1ncnc2ccccc12` (stereo not drawn) [compound 277] showed a pest or weed control at 125 ppm [1] of 0 to 60%, a pest or weed control at 125 µg/mL [2] of 60 to 100% and a pest or weed control at 125 µg/mL [3] of 60 to 100%. It also gave a pest or weed control at 250 ppm [4] of at least 95%.

In the case of `CC(CC#Cc1ccc(S(F)(F)(F)(F)F)cc1)Nc1ncnc2sccc12` (stereo not drawn) [compound 238], the pest or weed control at 125 ppm [1] is reported as 60 to 100%, the pest or weed control at 125 µg/mL [2] is reported as 60 to 100% and the pest or weed control at 125 µg/mL [3] is reported as 60 to 100%. For the same molecule, the pest or weed control at 250 ppm [4] was at least 95%.

For `CCCCC(CC#Cc1ccccc1)Nc1ncnc2sccc12` (stereo not drawn) [compound 269], the pest or weed control at 125 ppm [1] was 0 to 60%, the pest or weed control at 125 µg/mL [2] was 60 to 100% and the pest or weed control at 125 µg/mL [3] was 60 to 100%. For the same molecule, the pest or weed control at 250 ppm [4] was 60 to 80%.

`Cc1ccc(C#CCC(C)Nc2ncnc3sccc23)c(C)c1` (stereo not drawn) [compound 259] gave a pest or weed control at 125 ppm [1] of 60 to 100%, a pest or weed control at 125 µg/mL [2] of 60 to 100% and a pest or weed control at 125 µg/mL [3] of 60 to 100%. The pest or weed control at 250 ppm [4] was at least 95%.

With `FC(F)=Cc1ccc(C#CCCNc2ncnc3ccccc23)cc1` [compound 113] the pest or weed control at 125 ppm [1] was 0 to 60%, the pest or weed control at 125 µg/mL [2] was 60 to 100% and the pest or weed control at 125 µg/mL [3] was 60 to 100%. The pest or weed control at 250 ppm [4] was at least 95%.

With `CC(CC#Cc1ccc(Cl)cc1C(F)(F)F)Nc1ncnc2cccc(Cl)c12` (stereo not drawn) [compound 350] the pest or weed control at 125 ppm [1] was 0 to 60%, the pest or weed control at 125 µg/mL [2] was 60 to 100% and the pest or weed control at 125 µg/mL [3] was 60 to 100%. The pest or weed control at 250 ppm [4] was at least 95%.

With `C(#Cc1ccccc1)CCNc1ncnc2sccc12` [compound 10, 4-(4-Phenyl-3-butynylamino)thieno[2,3-d]pyrimidine] the pest or weed control at 125 ppm [1] was 60 to 100%, the pest or weed control at 125 µg/mL [2] was 60 to 100% and the pest or weed control at 125 µg/mL [3] was 60 to 100%. For the same molecule, the pest or weed control at 250 ppm [4] was 60 to 80%.

Molecule `CC(CC#Cc1ccc(C(C)C)cc1)Nc1ncnc2sccc12` (stereo not drawn) [compound 241] has a pest or weed control at 125 ppm [1] of 60 to 100%, a pest or weed control at 125 µg/mL [2] of 60 to 100% and a pest or weed control at 125 µg/mL [3] of 60 to 100%. The pest or weed control at 250 ppm [4] was at least 95%.

In the case of `CC(CC#Cc1ccc(S(F)(F)(F)(F)F)cc1Cl)Nc1ncnc2sccc12` (stereo not drawn) [compound 253], the pest or weed control at 125 ppm [1] is reported as 0 to 60%, the pest or weed control at 125 µg/mL [2] is reported as 60 to 100% and the pest or weed control at 125 µg/mL [3] is reported as 60 to 100%. It also gave a pest or weed control at 250 ppm [4] of 60 to 80%.

In the case of `CC(CC#Cc1ccc(F)cc1C(F)(F)F)Nc1ncnc2sccc12` (stereo not drawn) [compound 249], the pest or weed control at 125 ppm [1] is reported as 60 to 100%, the pest or weed control at 125 µg/mL [2] is reported as 60 to 100% and the pest or weed control at 125 µg/mL [3] is reported as 60 to 100%. For the same molecule, the pest or weed control at 250 ppm [4] was at least 95%.

`CC(CC#Cc1ccc(C(F)(F)F)cc1)Nc1ncnc2sccc12` (stereo not drawn) [compound 235] showed a pest or weed control at 125 ppm [1] of 60 to 100%, a pest or weed control at 125 µg/mL [2] of 60 to 100% and a pest or weed control at 125 µg/mL [3] of 60 to 100%. For the same molecule, the pest or weed control at 250 ppm [4] was at least 95%.

For `CC(CC#Cc1ccc(Cl)cc1C(F)(F)F)Nc1ncnc2ccccc12` (stereo not drawn) [compound 285], the pest or weed control at 125 ppm [1] was 60 to 100%, the pest or weed control at 125 µg/mL [2] was 60 to 100% and the pest or weed control at 125 µg/mL [3] was 60 to 100%. The pest or weed control at 250 ppm [4] was at least 95%.

`Fc1cc2ncnc(NCCC#Cc3ccc(Cl)cc3C(F)(F)F)c2cc1F` [compound 355] gave a pest or weed control at 125 ppm [1] of 60 to 100%, a pest or weed control at 125 µg/mL [2] of 60 to 100% and a pest or weed control at 125 µg/mL [3] of 60 to 100%. The pest or weed control at 250 ppm [4] was at least 95%.

`CC(CC#Cc1ccc(S(F)(F)(F)(F)F)cc1Cl)Nc1ncnc2ccccc12` (stereo not drawn) [compound 283] gave a pest or weed control at 125 ppm [1] of 60 to 100%, a pest or weed control at 125 µg/mL [2] of 60 to 100% and a pest or weed control at 125 µg/mL [3] of 60 to 100%. For the same molecule, the pest or weed control at 250 ppm [4] was 60 to 80%.

`CC(CC#Cc1cc(F)ccc1C(F)(F)F)Nc1ncnc2sccc12` (stereo not drawn) [compound 248] gave a pest or weed control at 125 ppm [1] of 0 to 60%, a pest or weed control at 125 µg/mL [2] of 60 to 100% and a pest or weed control at 125 µg/mL [3] of 60 to 100%. The pest or weed control at 250 ppm [4] was 60 to 80%.
